# Measurements: ChEMBL document CHEMBL4422633, “Antioxidant-Inspired Drug Discovery: Antitumor Metabolite Is Formed in Situ from a Hydroxycinnamic Acid Derivative upon Free-Radical Scavenging” (J Med Chem, 2019)
# The source made the active and inactive calls. The calls are words filed in the database; no cut-off is given here.
# Columns and labels:
# NCI-H460 [1] = assay: Induction of DNA damage response in human NCI-H460 cells assessed as increase in H2AX expression at 10 uM after 24 hrs by alexa fluor 488-staining based flow cytometry; assay type: functional, cell-based
# A549 [2] = assay: Induction of apoptosis in human A549 cells assessed as early apoptotic cells at 10 uM after 24 hrs by Annexin V/propidium iodide-staining based flow cytometry (reference value: 0.48 +/- 0.01%); assay type: functional
# HaCaT [3] = assay: Induction of DNA damage response in human HaCaT cells assessed as increase in H2AX expression at 10 uM after 24 hrs by alexa fluor 488-staining based flow cytometry; assay type: cell-based
# [4] = Induction of apoptosis in human HaCaT cells assessed as viable cells at 10 uM after 24 hrs by Annexin V/propidium iodide-staining based flow cytometry (reference value: 95.63 +/- 3.83%); assay type: cell-based; conditions: read-out: Activity
# A549 [5] = assay: Induction of apoptosis in human A549 cells assessed as viable cells at 10 uM after 24 hrs by Annexin V/propidium iodide-staining based flow cytometry (reference value: 96.45 +/- 2.89%); assay type: functional; conditions: A549, 24 h, read-out: Activity
# NCI-H460 [6] = assay: Induction of apoptosis in human NCI-H460 cells assessed as necrotic cells at 10 uM after 24 hrs by Annexin V/propidium iodide-staining based flow cytometry (reference value: 2.13 +/- 0.02%); assay type: functional
# [7] = biological target: T1, Serine/threonine-protein kinase Chk1 (Homo sapiens) (UniProt O14757); assay: Inhibition of CHK1 phosphorylation at S345 in human MCF7 cells at 10 uM pretreated for 30 mins followed by 10 J/m'2 irradiation and measured after 1 hr by Western blot analysis; assay type: cell-based
# T1 sequence (whole entry): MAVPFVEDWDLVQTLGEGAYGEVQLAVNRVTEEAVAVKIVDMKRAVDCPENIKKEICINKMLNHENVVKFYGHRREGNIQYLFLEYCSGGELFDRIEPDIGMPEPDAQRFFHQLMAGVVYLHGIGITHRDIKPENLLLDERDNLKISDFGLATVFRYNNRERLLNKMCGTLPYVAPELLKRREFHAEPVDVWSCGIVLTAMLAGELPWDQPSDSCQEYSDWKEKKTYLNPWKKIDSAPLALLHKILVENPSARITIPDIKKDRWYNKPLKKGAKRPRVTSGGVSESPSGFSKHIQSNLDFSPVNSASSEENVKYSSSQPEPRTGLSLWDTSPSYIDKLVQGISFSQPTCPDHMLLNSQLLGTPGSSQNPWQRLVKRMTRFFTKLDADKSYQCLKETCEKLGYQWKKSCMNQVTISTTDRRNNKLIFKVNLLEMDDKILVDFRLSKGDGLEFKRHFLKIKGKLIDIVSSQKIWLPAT
# MCF7 = assay: Cytotoxicity against human MCF7 cells assessed as reduction in cell viability after 72 hrs by MTT assay; assay type: functional, cell-based; conditions: MCF7, 72 h
# [8] = biological target: Serine/threonine-protein kinase Chk2 (Homo sapiens) (UniProt O96017); assay: Induction of CHK2 phosphorylation at T68 in human MCF7 cells at 10 uM pretreated for 30 mins followed by 10 J/m'2 irradiation and measured after 1 hr by Western blot analysis; assay type: cell-based
# Serine/threonine-protein kinase Chk2 (Homo sapiens), sequence (O96017 whole entry): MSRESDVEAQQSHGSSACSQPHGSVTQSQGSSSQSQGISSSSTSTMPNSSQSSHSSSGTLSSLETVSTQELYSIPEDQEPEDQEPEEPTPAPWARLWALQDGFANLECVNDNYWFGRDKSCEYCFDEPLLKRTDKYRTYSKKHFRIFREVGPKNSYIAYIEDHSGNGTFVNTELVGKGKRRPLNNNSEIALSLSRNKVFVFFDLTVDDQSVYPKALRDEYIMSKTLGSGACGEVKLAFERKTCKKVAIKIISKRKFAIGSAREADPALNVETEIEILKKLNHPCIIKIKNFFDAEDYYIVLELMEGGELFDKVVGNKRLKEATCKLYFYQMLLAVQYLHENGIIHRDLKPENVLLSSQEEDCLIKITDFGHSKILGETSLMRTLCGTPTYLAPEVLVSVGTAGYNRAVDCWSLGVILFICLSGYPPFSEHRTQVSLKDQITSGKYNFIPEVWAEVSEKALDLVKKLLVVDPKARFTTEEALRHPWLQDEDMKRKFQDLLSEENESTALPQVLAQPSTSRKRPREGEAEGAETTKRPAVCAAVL
# NCI-H460 [9] = assay: Induction of DNA damage response in human NCI-H460 cells transfected with MDR assessed as increase in H2AX expression at 10 uM after 24 hrs by alexa fluor 488-staining based flow cytometry; assay type: functional, cell-based
# NCI-H460 [10] = assay: Induction of apoptosis in human NCI-H460 cells assessed as early apoptotic cells at 10 uM after 24 hrs by Annexin V/propidium iodide-staining based flow cytometry (reference value: 0.45 +/- 0.01%); assay type: functional
# NCI-H661 [11] = assay: Induction of apoptosis in human NCI-H661 cells assessed as necrotic cells at 10 uM after 24 hrs by Annexin V/propidium iodide-staining based flow cytometry (reference value: 2.58 +/- 0.05%); assay type: functional
# [12] = Induction of apoptosis in human NCI-H460/R cells transfected with MDR assessed as viable cells at 10 uM after 24 hrs by Annexin V/propidium iodide-staining based flow cytometry (reference value: 95.76 +/- 2.87%); assay type: functional; conditions: NCI-H460, 24 h, read-out: Activity
# Homo sapiens [13] = organism: Homo sapiens; assay: Induction of DNA damage response in human NCI-H460/R cells transfected with MDR assessed as increase in H2AX expression at 10 uM after 24 hrs by alexa fluor 488-staining based flow cytometry; assay type: functional, cell-based
# A549 [14] = assay: Induction of ROS generation in human A549 cells assessed as increase DHE positive cells at 10 uM after 24 hrs by DHE-staining based flow cytometry; assay type: functional, cell-based
# HeLa = assay: Cytotoxicity against human HeLa cells assessed as reduction in cell viability after 72 hrs by MTT assay; assay type: functional, cell-based
# [15] = Cytotoxicity against mouse L5178B1 cells transfected with pHa MDR1/A retrovirus assessed as reduction in cell viability after 72 hrs by MTT assay; assay type: functional, cell-based; conditions: MDR1, 72 h
# [16] = Cytotoxicity against mouse L5178 cells assessed as reduction in cell viability after 72 hrs by MTT assay; assay type: functional, cell-based; conditions: L5178, 72 h
# [17] = Induction of apoptosis in human NCI-H460/R cells transfected with MDR assessed as late apoptotic cells at 10 uM after 24 hrs by Annexin V/propidium iodide-staining based flow cytometry (reference value: 0.84 +/- 0.01%); assay type: functional
# [18] = Induction of apoptosis in human NCI-H460/R cells transfected with MDR assessed as necrotic cells at 10 uM after 24 hrs by Annexin V/propidium iodide-staining based flow cytometry (reference value: 3.17 +/- 0.13%); assay type: functional
# A549 [19] = assay: Induction of DNA damage response in human A549 cells assessed as increase in H2AX expression at 10 uM after 24 hrs by alexa fluor 488-staining based flow cytometry; assay type: functional, cell-based
# NCI-H661 [20] = assay: Induction of apoptosis in human NCI-H661 cells assessed as viable cells at 10 uM after 24 hrs by Annexin V/propidium iodide-staining based flow cytometry (reference value: 96.16 +/- 0.96%); assay type: functional; conditions: NCI-H661, 24 h, read-out: Activity
# NCI-H460 [21] = assay: Induction of apoptosis in human NCI-H460 cells assessed as viable cells at 10 uM after 24 hrs by Annexin V/propidium iodide-staining based flow cytometry (reference value: 96.49 +/- 0.96%); assay type: functional; conditions: NCI-H460, 24 h, read-out: Activity
# SiHa = assay: Cytotoxicity against human SiHa cells assessed as reduction in cell viability after 72 hrs by MTT assay; assay type: functional, cell-based
# Homo sapiens [22] = organism: Homo sapiens; assay: Induction of ROS generation in human NCI-H460/R cells transfected with MDR assessed as increase DHE positive cells at 10 uM after 24 hrs by DHE-staining based flow cytometry; assay type: functional, cell-based
# HaCaT [23] = assay: Induction of ROS generation in human HaCaT cells assessed as increase DHE positive cells at 10 uM after 24 hrs by DHE-staining based flow cytometry; assay type: cell-based
# HaCaT [24] = assay: Induction of apoptosis in human HaCaT cells assessed as early apoptotic cells at 10 uM after 24 hrs by Annexin V/propidium iodide-staining based flow cytometry (reference value: 0.23 +/- 0.01%); assay type: cell-based
# HaCaT [25] = assay: Induction of apoptosis in human HaCaT cells assessed as late apoptotic cells at 10 uM after 24 hrs by Annexin V/propidium iodide-staining based flow cytometry (reference value: 2.26 +/- 0.09%); assay type: cell-based
structure (smiles),measurement,setting,value
COC(=O)/C=C/C1(O)C=CC(=O)C=C1,Activity,NCI-H460 [1],Active
same,Activity,A549 [2],0.72%
same,Activity,HaCaT [3],Non-Toxic
same,"viability at 24 h, 10 µM",[4],91.5%
same,viability at 10 µM,A549 [5],92.8%
same,Activity,NCI-H460 [6],7.31%
same,inhibition,[7],Active
same,IC50,MCF7,6.22 µM
same,Activity,[8],Active
same,Activity,NCI-H460 [9],Active
same,Activity,NCI-H460 [10],0.21%
same,Activity,NCI-H661 [11],44.82%
same,viability at 10 µM,[12],90%
same,Activity,Homo sapiens [13],Active
same,Activity,A549 [14],Active
same,IC50,HeLa,9.85 µM
same,IC50,[15],0.62 µM
same,IC50,[16],0.46 µM
same,Activity,[17],2.34%
same,Activity,[18],7.51%
same,Activity,A549 [19],Active
same,viability at 10 µM,NCI-H661 [20],45.4%
same,viability at 10 µM,NCI-H460 [21],89.1%
same,IC50,SiHa,8.89 µM
same,Activity,Homo sapiens [22],inactive
same,Activity,HaCaT [23],Non-Toxic
same,Activity,HaCaT [24],0.44%
same,Activity,HaCaT [25],2.85%
